Several values for one entry are separate records, joined by “and”; a condition that tells them apart may be missing. Equal values may be shown once.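 48-hour exposure; five concentrations; linearly interpolated endpoints. GI50 marks 50% less growth. TGI marks complete inhibition of growth.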
Columns and labels:
Experiment in all cases: NCI anticancer screen, dose series, 48 h
SF-539 CNS = test system: SF-539 CNS
HS 578T breast = test system: HS 578T breast
K-562 leukemia = test system: K-562 leukemia
OVCAR-4 ovarian = test system: OVCAR-4 ovarian
NCI-H522 lung = test system: NCI-H522 lung
UACC-257 melanoma = test system: UACC-257 melanoma
NCI-H226 lung = test system: NCI-H226 lung
BT-549 breast = test system: BT-549 breast
HL-60(TB) leukemia = test system: HL-60(TB) leukemia
IGROV1 ovarian = test system: IGROV1 ovarian

Row | Compound | GI50 (SF-539 CNS) | TGI (SF-539 CNS) | GI50 (HS 578T breast) | TGI (HS 578T breast) | GI50 (K-562 leukemia) | TGI (K-562 leukemia) | GI50 (OVCAR-4 ovarian) | TGI (OVCAR-4 ovarian) | GI50 (NCI-H522 lung) | TGI (NCI-H522 lung) | GI50 (UACC-257 melanoma) | TGI (UACC-257 melanoma) | GI50 (NCI-H226 lung) | TGI (NCI-H226 lung) | GI50 (BT-549 breast) | TGI (BT-549 breast) | GI50 (HL-60(TB) leukemia) | TGI (HL-60(TB) leukemia) | GI50 (IGROV1 ovarian) | TGI (IGROV1 ovarian)
1 | CCCCC(OC(=O)c1ccc(N)cc1)C(=O)Nc1nc(CC(=O)OCC)cs1 (stereo not drawn) | 33.1 µM | > 100 µM | 43.4 µM | > 100 µM | 32.8 µM | > 100 µM | 29.8 µM | > 100 µM | 33.9 µM | > 100 µM | 42.8 µM | > 100 µM | 43.5 µM | > 100 µM | 34.5 µM | > 100 µM | 35.1 µM | 95.1 µM | 51 µM | > 100 µM
2 | CCCS(=O)(=O)Nc1cccc(Nc2ncnc3cc(NC(=O)CCl)ccc23)c1Cl | 1.35 µM | 4.54 µM | 3.32 µM | 17 µM | 1.04 µM | 17.1 µM | 2.95 µM | 7.76 µM | 0.432 µM | 0.913 µM | 2.46 µM | 7.57 µM | 3.31 µM | 11.9 µM | 2.42 µM | 6.69 µM | 4.28 µM | 10.9 µM | 2.61 µM | 7.06 µM
3 | O=C(CCCC(=O)N/N=C/c1cc(Cl)ccc1O)N/N=C\c1cc(Cl)ccc1O | 2.66 µM | 33.5 µM | > 100 µM | > 100 µM | 2.88 µM | > 100 µM | 1.25 µM | > 100 µM | 3.62 µM | > 100 µM | 2.71 µM | > 100 µM | 6.64 µM | 65.7 µM | 7.34 µM | > 100 µM | 2.48 µM | 8.28 µM | 4.21 µM | > 100 µM
4 | COc1cc(NS(C)(=O)=O)ccc1Cc1c2ccccc2nc2ccccc12 | 0.118 µM | 1.15 µM | 1.72 µM | 8.17 µM | 0.307 µM | 2.4 µM | 1.25 µM | 2.52 µM | 0.0712 µM | 0.961 µM | 0.493 µM | 2.67 µM | 0.107 µM | 0.462 µM | 0.267 µM | 1.97 µM | 0.0258 µM | 0.141 µM | 0.414 µM | 2.88 µM
5 | CC1=C2[C@@H](CC1)[C@]1(C)O[C@@](C(C)C)(C[C@H]1OC(=O)CO)[C@H]2OC(=O)CCCc1ccccc1 | 14.2 µM | 27.5 µM | 2.43 µM | 9.23 µM | 5.88 µM | 44.7 µM | 11.9 µM | 29.1 µM | 7.51 µM | 24.6 µM | 13.1 µM | 27.2 µM | 6.04 µM | 22.9 µM | 4.44 µM | 15.7 µM | 2.21 µM | 5.27 µM | 3.71 µM | 14.1 µM
6 | CC1OC(CC(=O)O)Cc2c1c(O)c1c(O)cc(-c3cc(=O)c4c(=O)c5c(c(=O)c=4c3=O)CC(CC(=O)O)OC5C)c(O)c1c2O (stereo not drawn) | 59.3 µM | 36 µM | 38.3 µM |  | 61.1 µM | > 83.6 µM | 35.1 µM | 39.7 µM | 17.8 µM | 18.9 µM and 64.7 µM | 21.8 µM | 26.9 µM and 66.9 µM | 46.8 µM | > 75.4 µM | 52.7 µM |  |  | > 49.1 µM |  | > 86.3 µM
7 | CCOC(=O)Nc1ccc2c(c1)C(=O)N(CC)c1ccccc1O2 | 0.0942 µM | 0.643 µM | 0.117 µM | > 100 µM | 0.0484 µM | > 100 µM | 0.237 µM | > 100 µM | 0.0797 µM | 1.09 µM | 35.6 µM | > 100 µM | 0.796 µM | > 100 µM | 0.184 µM | 16.9 µM | 0.0545 µM | 0.155 µM | 0.265 µM | > 100 µM
8 | O=C(Nc1cn[nH]c1-c1nc2ccc(CN3CCOCC3)cc2[nH]1)NC1CC1 | 0.262 µM and 0.688 µM | 1.35 µM and 3.7 µM | 0.118 µM and 0.125 µM | 0.717 µM and 0.681 µM | 0.543 µM and 1.59 µM | > 100 µM | 1.04 µM and > 10 µM | 12.4 µM and > 10 µM | 0.563 µM and 1.18 µM | 3.43 µM and > 10 µM | 1.72 µM and > 10 µM | 7.76 µM and > 10 µM | 0.153 µM and 0.312 µM |  | 0.385 µM and 0.963 µM | 2.13 µM and > 10 µM | 1.94 µM and 7.38 µM | 5.15 µM and > 10 µM | 2.75 µM and 2.67 µM | 19.8 µM and > 10 µM
9 | CC[C@H]1CCC/C=C/[C@@H]2C[C@H](O)C[C@H]2[C@H](O)/C=C/C(=O)O1 | 0.06 µM | > 100 µM |  | > 100 µM | 0.125 µM | > 100 µM | 0.0361 µM |  | 0.211 µM | 0.634 µM | 0.0802 µM | > 100 µM | 0.0197 µM | 0.0424 µM | 0.0549 µM | > 100 µM | 0.0669 µM | 0.473 µM | 0.152 µM | > 100 µM

Reference: PubChem BioAssay (NCI)
